Results from ChEMBL document CHEMBL1136864, “A one step/one pot synthesis of N,N-bis(phosphonomethyl)amino acids and their effects on adipogenic and osteogenic differentiation of human mesenchymal stem cells” (Bioorg Med Chem, 2009).
Active and inactive are the calls of the source. The calls are words filed in the database; no cut-off is given here.

Tests used:
[1] = Cytotoxicity against human MADS cells at 0.1 to 100 nM; type: cell-based; details: 0.1 µM
MADS [2] = assay: Induction of osteogenesis in human MADS cells assessed as ALP activity at 0.1 to 100 nM; type: functional, cell-based
MADS [3] = assay: Effect on adipogenesis in human MADS cells assessed as GPDH activity at 300 nM; type: functional, cell-based
[4] = Cytotoxicity against human MADS cells at 100 nM; type: cell-based; details: 0.1 µM
[5] = Cytotoxicity against human MADS cells at 300 nM; type: cell-based; details: 0.3 µM
[6] = Inhibition of osteogenesis in human MADS cells assessed as ALP activity at 100 nM; type: cell-based; details: 0.1 µM
[7] = Inhibition of osteogenesis in human MADS cells assessed as ALP activity at 300 nM; type: cell-based; details: 0.3 µM
MADS [8] = assay: Effect on adipogenesis in human MADS cells assessed as GPDH activity at 100 nM; type: functional, cell-based
MADS [9] = assay: Effect on adipogenic differentiation of human MADS cells into adipocytes at 100 nM after 14 days by Oil red O staining; type: functional, cell-based
[10] = Toxicity in human MADS cells assessed as inhibition of osteoblast formation at 100 nM after 14 days by Von Kossa staining; type: cell-based; details: 336 h, 0.1 µM
[11] = Toxicity in human MADS cells assessed as inhibition of osteoblast formation at 300 nM after 14 days by Von Kossa staining; type: cell-based; details: 336 h, 0.3 µM
MADS [12] = assay: Effect on adipogenic differentiation of human MADS cells into adipocytes at 300 nM after 14 days by Oil red O staining; type: functional, cell-based

Q: Which results are given for `O=C(O)C1(N(CP(=O)(O)O)CP(=O)(O)O)CCCCC1`?
A: Activity [1]: Non-toxic; Activity (MADS [2]): Active; Activity (MADS [3]): inactive; Activity [4]: Non-toxic; Activity [5]: Non-toxic; Activity [6]: Active; Activity [7]: Active; Activity (MADS [8]): inactive; Activity (MADS [9]): inactive; Activity [10]: Toxic; Activity [11]: Toxic; Activity (MADS [12]): inactive

Q: Which results are given for `O=C(O)C1(N(CP(=O)(O)O)CP(=O)(O)O)CCCC1`?
A: Activity [1]: Non-toxic; Activity (MADS [2]): Active; Activity (MADS [3]): inactive; Activity [4]: Non-toxic; Activity [5]: Non-toxic; Activity [6]: Active; Activity [7]: Active; Activity (MADS [8]): inactive; Activity (MADS [9]): inactive; Activity [10]: Toxic; Activity [11]: Toxic; Activity (MADS [12]): inactive

Q: Which results are given for `NCCCC(O)(P(=O)(O)O)P(=O)(O)O`?
A: Activity (MADS [2]): Active; Activity (MADS [3]): inactive

Q: What does the source list for `CC(C)(C(=O)O)N(CP(=O)(O)O)CP(=O)(O)O`?
A: Activity [1]: Non-toxic; Activity (MADS [2]): Active; Activity (MADS [3]): inactive; Activity [4]: Non-toxic; Activity [5]: Non-toxic; Activity [6]: Active; Activity [7]: Active; Activity (MADS [8]): inactive; Activity (MADS [9]): inactive; Activity [10]: Toxic; Activity [11]: Toxic; Activity (MADS [12]): inactive
